Measured values from the NIST ThermoML archive (doi:10.1016/j.jct.2019.03.023).
Values joined by “and” are separate entries in the source; they are usually repeats but may differ in a detail not shown here. Equal values may be shown once.

Test: molar heat capacity at constant volume
Conditions: Fluid (supercritical or subcritical phases), Vacuum adiabatic calorimetry

CC(C)O [propan-2-ol]
Conditions | molar heat capacity at constant volume
452.05 K, Mass density=581.06 kg/m3 | 180.71 J/K/mol
452.1 K, Mass density=581.06 kg/m3 | 178.12 J/K/mol
452.15 K, Mass density=581.06 kg/m3 | 174.34 J/K/mol
452.2 K, Mass density=581.06 kg/m3 | 178.36 J/K/mol
452.25 K, Mass density=581.06 kg/m3 | 175.9 J/K/mol
463.48 K, Mass density=329.2 kg/m3 | 270.31 J/K/mol
463.58 K, Mass density=329.2 kg/m3 | 271.63 J/K/mol
463.68 K, Mass density=329.2 kg/m3 | 275.36 J/K/mol
463.78 K, Mass density=329.2 kg/m3 | 270.31 J/K/mol
463.83 K, Mass density=329.2 kg/m3 | 274.63 J/K/mol
463.97 K, Mass density=329.2 kg/m3 | 279.44 J/K/mol
464.18 K, Mass density=329.2 kg/m3 | 278.72 J/K/mol and 277.04 J/K/mol
464.27 K, Mass density=329.2 kg/m3 | 280.16 J/K/mol
464.42 K, Mass density=329.2 kg/m3 | 278.24 J/K/mol
464.47 K, Mass density=329.2 kg/m3 | 275.54 J/K/mol
464.97 K, Mass density=329.2 kg/m3 | 277.34 J/K/mol
465.27 K, Mass density=329.2 kg/m3 | 272.77 J/K/mol
465.34 K, Mass density=329.2 kg/m3 | 278.54 J/K/mol
482.51 K, Mass density=329.2 kg/m3 | 288.1 J/K/mol
482.6 K, Mass density=329.2 kg/m3 | 289.9 J/K/mol
482.7 K, Mass density=329.2 kg/m3 | 288.46 J/K/mol
482.8 K, Mass density=329.2 kg/m3 | 287.73 J/K/mol
482.89 K, Mass density=329.2 kg/m3 | 288.34 J/K/mol
482.99 K, Mass density=329.2 kg/m3 | 292 J/K/mol
483.09 K, Mass density=329.2 kg/m3 | 287.19 J/K/mol
483.18 K, Mass density=329.2 kg/m3 | 291.64 J/K/mol
491.97 K, Mass density=274 kg/m3 | 317.84 J/K/mol
492.07 K, Mass density=274 kg/m3 | 313.28 J/K/mol
492.16 K, Mass density=274 kg/m3 | 317.9 J/K/mol
492.25 K, Mass density=274 kg/m3 | 317.9 J/K/mol
492.35 K, Mass density=274 kg/m3 | 322.53 J/K/mol
492.44 K, Mass density=274 kg/m3 | 322.53 J/K/mol
492.54 K, Mass density=274 kg/m3 | 322.59 J/K/mol
492.63 K, Mass density=274 kg/m3 | 322.59 J/K/mol
492.73 K, Mass density=274 kg/m3 | 318.08 J/K/mol
493.86 K, Mass density=255.8 kg/m3 | 333.29 J/K/mol
493.95 K, Mass density=255.8 kg/m3 | 333.29 J/K/mol
494.05 K, Mass density=255.8 kg/m3 | 323.49 J/K/mol
494.14 K, Mass density=255.8 kg/m3 | 338.27 J/K/mol
494.24 K, Mass density=255.8 kg/m3 | 333.41 J/K/mol
494.33 K, Mass density=255.8 kg/m3 | 323.61 J/K/mol
494.43 K, Mass density=255.8 kg/m3 | 333.47 J/K/mol
494.52 K, Mass density=255.8 kg/m3 | 328.54 J/K/mol
494.52 K, Mass density=324.5 kg/m3 | 307.87 J/K/mol
494.62 K, Mass density=324.5 kg/m3 | 303.36 J/K/mol
494.71 K, Mass density=324.5 kg/m3 | 303.18 J/K/mol
494.8 K, Mass density=324.5 kg/m3 | 309.79 J/K/mol
494.99 K, Mass density=324.5 kg/m3 | 306.6 J/K/mol
495.09 K, Mass density=324.5 kg/m3 | 314.12 J/K/mol
495.27 K, Mass density=324.5 kg/m3 | 308.05 J/K/mol
495.37 K, Mass density=324.5 kg/m3 | 311.05 J/K/mol
495.46 K, Mass density=324.5 kg/m3 | 303.36 J/K/mol
495.56 K, Mass density=324.5 kg/m3 | 314.96 J/K/mol
499.41 K, Mass density=274 kg/m3 | 329.44 J/K/mol
499.5 K, Mass density=274 kg/m3 | 338.64 J/K/mol
499.6 K, Mass density=274 kg/m3 | 334.07 J/K/mol
499.69 K, Mass density=274 kg/m3 | 338.7 J/K/mol
499.79 K, Mass density=274 kg/m3 | 334.13 J/K/mol
499.88 K, Mass density=274 kg/m3 | 338.76 J/K/mol
499.97 K, Mass density=274 kg/m3 | 338.82 J/K/mol
500.07 K, Mass density=274 kg/m3 | 338.82 J/K/mol
500.16 K, Mass density=274 kg/m3 | 334.25 J/K/mol
500.25 K, Mass density=255.8 kg/m3 | 348.07 J/K/mol
500.35 K, Mass density=255.8 kg/m3 | 343.74 J/K/mol
500.44 K, Mass density=255.8 kg/m3 | 348.67 J/K/mol
500.54 K, Mass density=255.8 kg/m3 | 348.73 J/K/mol
500.63 K, Mass density=255.8 kg/m3 | 345.79 J/K/mol
500.72 K, Mass density=255.8 kg/m3 | 348.79 J/K/mol
500.82 K, Mass density=255.8 kg/m3 | 338.94 J/K/mol
500.85 K, Mass density=329.2 kg/m3 | 318.14 J/K/mol
500.91 K, Mass density=255.8 kg/m3 | 346.15 J/K/mol
500.95 K, Mass density=329.2 kg/m3 | 311.35 J/K/mol
501 K, Mass density=281.9 kg/m3 | 333.77 J/K/mol
501.04 K, Mass density=329.2 kg/m3 | 310.87 J/K/mol
501.09 K, Mass density=281.9 kg/m3 | 334.85 J/K/mol
501.1 K, Mass density=281.9 kg/m3 | 338.09 J/K/mol
501.14 K, Mass density=329.2 kg/m3 | 313.94 J/K/mol
501.23 K, Mass density=329.2 kg/m3 | 314.06 J/K/mol
501.29 K, Mass density=281.9 kg/m3 | 337.01 J/K/mol
501.33 K, Mass density=329.2 kg/m3 | 310.75 J/K/mol
501.38 K, Mass density=281.9 kg/m3 | 335.39 J/K/mol
501.42 K, Mass density=329.2 kg/m3 | 316.76 J/K/mol
501.47 K, Mass density=281.9 kg/m3 | 337.49 J/K/mol
501.53 K, Mass density=329.2 kg/m3 | 318.08 J/K/mol
501.57 K, Mass density=281.9 kg/m3 | 336.95 J/K/mol
501.62 K, Mass density=329.2 kg/m3 | 320.49 J/K/mol
501.66 K, Mass density=281.9 kg/m3 | 338.58 J/K/mol
501.75 K, Mass density=281.9 kg/m3 | 331 J/K/mol
501.81 K, Mass density=329.2 kg/m3 | 316.64 J/K/mol
501.85 K, Mass density=343.1 kg/m3 | 312.61 J/K/mol
501.9 K, Mass density=329.2 kg/m3 | 317.06 J/K/mol
501.94 K, Mass density=266.3 kg/m3 | 345.85 J/K/mol
